Test: solvent given as SMILES

In the case of `c1ccc2c(c1)-c1ccccc1C21c2cc(-c3ccc4ccc5cccc6ccc3c4c56)ccc2-c2ccc(-c3ccc4ccc5cccc6ccc3c4c56)cc21`, the emission maximum (in ClC(Cl)Cl) is reported as 421 nm.

Work on `CCCCN(CCCC)c1ccc(C#Cc2cc(C#Cc3ccc(N(CCCC)CCCC)cc3)c(C#Cc3cc(C(F)(F)F)cc(C(F)(F)F)c3)cc2C#Cc2cc(C(F)(F)F)cc(C(F)(F)F)c2)cc1` yielded an emission maximum (in ClCCl) of 552 nm and an emission maximum (in c1ccccc1) of 514 nm.

`CC1(C)c2ccccc2N(c2ccc(-c3nc(-c4ccccn4)n(-c4ccc(N5c6ccccc6C(C)(C)c6ccccc65)cc4)n3)cc2)c2ccccc21` gave an emission maximum (in ClCCl) of 445 nm.

For `N#Cc1nc(-n2c3ccccc3c3ccccc32)cc(-n2c3ccccc3c3ccccc32)n1`, the emission maximum (in Cc1ccccc1) was 518 nm.

For `COC(=O)c1ccc(/C=C2\C=C(c3ccc(OC)c(OC)c3)OC2=O)cc1`, the emission maximum (in C1COCCO1) was 522 nm.

`c1ccc(-c2nnc(-c3cc(-n4c5ccccc5c5ccccc54)c(-n4c5ccccc5c5ccccc54)cc3-c3nnc(-c4ccccc4)o3)o2)cc1` showed an emission maximum (in CC#N) of 525.15 nm, an emission maximum (in Cc1ccccc1) of 466 nm and an emission maximum (in ClCCl) of 500.52 nm.

For `CCOC(=O)CSc1nc(C)c(CC)c(C#N)c1C#N`, the emission maximum (in c1ccccc1) was 407 nm.

`C[n+]1ccc(/C=C/c2ccc(N(c3ccccc3)c3ccc(/C=C/c4cc[n+](C)cn4)cc3)cc2)nc1` showed an emission maximum (in CS(C)=O) of 720 nm and an emission maximum (in OCC(O)CO) of 685 nm.

For `O=C1Cc2cc3c(cc2CCCc2ccc(cc2)CCC3)CC(=O)Cc2ccc(c3nsnc23)C1`, the emission maximum (in C1CCCCC1) was 501 nm, the emission maximum (in CC#N) was 544 nm and the emission maximum (in ClC(Cl)Cl) was 522 nm.

For `C(=C\c1ncnc2ccccc12)/c1ccc(N(c2ccccc2)c2ccccc2)cc1`, the emission maximum (in C1CCCCC1) was 463 nm, the emission maximum (in C1CCOC1) was 540 nm and the emission maximum (in CC#N) was 598 nm. It also gave an emission maximum (in CS(C)=O) of 600 nm and an emission maximum (in ClCCl) of 571 nm.

`COc1ccc(OC)c(-c2[nH]c(=O)n3c2-c2ccccc2C3=O)c1` gave an emission maximum (in CC#N) of 466 nm, an emission maximum (in CO) of 484 nm and an emission maximum (in ClCCl) of 462 nm.

Compound `CCOC(=O)COc1ccc(/C=C/C2=C3c4ccccc4C(c4ccc[nH]4)=[N+]3[B-](F)(F)n3ccc(C)c32)cc1` has an emission maximum (in C1CCOC1) of 625 nm, an emission maximum (in CC#N) of 617 nm and an emission maximum (in CCCCCC) of 630 nm. The emission maximum (in CO) was 624 nm, the emission maximum (in Cc1ccccc1) was 637 nm and the emission maximum (in ClCCl) was 631 nm.

`C(#Cc1nc2ccccc2s1)c1ccc(N(c2ccc(C#Cc3nc4ccccc4s3)cc2)c2ccc(C#Cc3nc4ccccc4s3)cc2)cc1` gave an emission maximum (in Cc1ccccc1) of 434 nm.

With `Cc1ccc(-c2ccc(/C=C/c3ccc(Cl)cc3)cn2)nc1` the emission maximum (in CC#N) was 392 nm.

With `CC(C)(C)OC(=O)NC(C(=O)OCc1ccc2c3cccc4cccc(c5cccc1c52)c43)c1c[nH]c2ccccc12` (stereo not given) the emission maximum (in CCO) was 447 nm.

In the case of `N#Cc1coc2ccccc2c1=O`, the emission maximum (in C1CCOC1) is reported as 373 nm, the emission maximum (in C1COCCO1) is reported as 402 nm and the emission maximum (in CC#N) is reported as 495 nm. The emission maximum (in CC(C)O) was 411 nm, the emission maximum (in CCCCO) was 500 nm and the emission maximum (in CCCO) was 440 nm. It also gave an emission maximum (in CCOC(C)=O) of 495 nm, an emission maximum (in CN(C)C=O) of 494 nm and an emission maximum (in CO) of 415 nm. The emission maximum (in CS(C)=O) was 490 nm, the emission maximum (in ClC(Cl)Cl) was 438 nm and the emission maximum (in O) was 396 nm.

In the case of `c1cc2c3c(cccc3c1)C(N1CCOCCOCCN(C3=Nc4cccc5cccc3c45)CCOCC1)=N2`, the emission maximum (in CC#N) is reported as 590 nm.

For `O=[N+]([O-])c1ccc(C#Cc2ccc3ccccc3c2)cc1`, the emission maximum (in ClC(Cl)Cl) was 536 nm and the emission maximum (in ClCCl) was 546 nm.

`COc1ccc(C2=C(C)C3=C(c4c(-c5ccccn5)nc5ccccn45)c4c(C)cc(C)n4[B-](F)(F)[N+]3=C2C)cc1` gave an emission maximum (in ClCCl) of 592 nm.

`CCC1(CC)c2cc(-c3cccs3)ccc2-c2c1c1c(c3c2C(CC)(CC)c2cc(-c4cccs4)ccc2-3)C(CC)(CC)c2cc(-c3cccs3)ccc2-1` gave an emission maximum (in C1CCOC1) of 385 nm.

Compound `COC(=O)c1nc(-c2ccco2)oc1C` has an emission maximum (in C1CCCCC1) of 302 nm, an emission maximum (in CC#N) of 318 nm and an emission maximum (in CCO) of 323 nm. It also gave an emission maximum (in CCOC(C)=O) of 304 nm.

`Cc1ccc(-c2nc3c([nH]2)C2=CC(=O)S[C@]2(C)[C@@]2(C)SC(=O)C=C32)cc1` gave an emission maximum (in CC#N) of 520 nm.

In the case of `Clc1cc(Cl)c(B2c3ccccc3Nc3ccccc32)c(Cl)c1`, the emission maximum (in ClCCl) is reported as 413 nm.

Source: the Deep4Chem optical property database
